Calls of active or inactive are those of the source. The calls are words filed in the database; no cut-off is given here.
Columns and labels:
[1] = molecular target: MAP kinase-interacting serine/threonine-protein kinase 2 (Homo sapiens, UniProt Q9HBH9); assay: Inhibition of MKN2 (unknown origin) in presence of ATP by HTRF assay
[2] = molecular target: T1, MAP kinase-interacting serine/threonine-protein kinase 1 (Homo sapiens, UniProt Q9BUB5); assay: Inhibition of MKN1 (unknown origin) in presence of ATP by HTRF assay
Target sequence in this assay (Q9BUB5 whole entry): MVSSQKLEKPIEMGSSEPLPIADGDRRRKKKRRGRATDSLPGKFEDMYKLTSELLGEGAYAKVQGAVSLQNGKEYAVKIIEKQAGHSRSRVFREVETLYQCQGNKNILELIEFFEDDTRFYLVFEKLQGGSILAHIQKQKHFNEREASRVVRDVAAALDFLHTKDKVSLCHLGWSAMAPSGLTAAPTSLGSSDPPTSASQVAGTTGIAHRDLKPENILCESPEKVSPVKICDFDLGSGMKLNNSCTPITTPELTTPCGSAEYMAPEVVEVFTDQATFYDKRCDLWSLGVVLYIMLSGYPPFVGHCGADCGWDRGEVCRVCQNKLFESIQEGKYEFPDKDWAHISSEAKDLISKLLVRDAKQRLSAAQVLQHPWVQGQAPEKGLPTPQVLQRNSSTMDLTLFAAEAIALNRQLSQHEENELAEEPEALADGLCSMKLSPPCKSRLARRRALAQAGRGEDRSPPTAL

[3] = molecular target: T1, MAP kinase-interacting serine/threonine-protein kinase 1; assay: Inhibition of MKN1 (unknown origin) at 1 uM in presence of ATP by HTRF assay
Target sequence in this assay (Q9BUB5 whole entry, looked up): as the sequence (Q9BUB5 whole entry) above

MOLM-13 [4] = assay: Antiproliferative activity against human MOLM13 cells assessed as reduction of cell viability incubated for 72 hrs by trypan blue staining based cell counting analysis; type: functional
K562 [5] = assay: Downregulation of cyclin-D1 levels in human K562 cells at 1 to 2 uM incubated for 24 hrs by western blot analysis; type: functional, cell-based; settings: dose 1-2 µM
MOLM-13 [6] = assay: Induction of apoptosis in human MOLM-13 cells assessed as early apoptotic cells at 2 uM incubated for 12 hrs by annexin-V and propidium iodide staining based flow cytometry analysis (reference value: 5.40%); type: functional
[7] = molecular target: T2, Serine/threonine-protein kinase PIM (Homo sapiens) (UniProt P11309+Q9P1W9+Q86V86); assay: Inhibition of PIM in human MOLM-13 cells assessed as reduction of BAD phosphorylation at 1 to 2 uM incubated for 12 hrs by western blot analysis; type: cell-based; settings: dose 1-2 µM
MOLM-13 [8] = assay: Induction of apoptosis in human MOLM-13 cells assessed as necrotic cells at 1 uM incubated for 12 hrs by annexin-V and propidium iodide staining based flow cytometry analysis (reference value: 0.06%); type: functional
MOLM-13 [9] = assay: Induction of apoptosis in human MOLM-13 cells assessed as necrotic cells at 2 uM incubated for 12 hrs by annexin-V and propidium iodide staining based flow cytometry analysis (reference value: 0.06%); type: functional
HL-60 = assay: Antiproliferative activity against human HL-60 cells assessed as reduction of cell viability incubated for 72 hrs by trypan blue staining based cell counting analysis; type: functional
MOLM-13 [10] = assay: Downregulation of cyclin-D1 levels in human MOLM-13 cells at 1 to 2 uM incubated for 12 hrs by western blot analysis; type: functional, cell-based; settings: dose 1-2 µM
MOLM-13 [11] = assay: Induction of apoptosis in human MOLM-13 cells assessed as live cells at 2 uM incubated for 12 hrs by annexin-V and propidium iodide staining based flow cytometry analysis (reference value: 91.49%); type: functional
MOLM-13 [12] = assay: Induction of cell cycle arrest in human MOLM-13 cells assessed as sub-G1 phase at 1 uM incubated for 12 hr by propidium iodide based flow cytometry analysis (Rvb= 4.78%); type: functional
[13] = molecular target: T2, Serine/threonine-protein kinase PIM (Homo sapiens); assay: Inhibition of PIM in human MOLM-13 cells assessed as reduction in phosphorylated 4EBP1 at 1 to 2 uM incubated for 12 hrs by western blot analysis; type: cell-based; settings: dose 1-2 µM
[14] = molecular target: MAP kinase-interacting serine/threonine-protein kinase 1/2 (Homo sapiens) (UniProt Q9HBH9+Q9BUB5); assay: Inhibition of MNK1/MNK2 in human MOLM-13 cells assessed as reduction in eIF4E phosphorylation at 1 to 2 uM incubated for 12 hrs by western blot analysis; type: cell-based; settings: dose 1-2 µM
MOLM-13 [15] = assay: Induction of apoptosis in human MOLM-13 cells assessed as early apoptotic cells at 1 uM incubated for 12 hrs by annexin-V and propidium iodide staining based flow cytometry analysis (reference value: 5.40%); type: functional
MOLM-13 [16] = assay: Induction of cell cycle arrest in human MOLM-13 cells assessed as G1 phase at 2 uM incubated for 12 hr by propidium iodide based flow cytometry analysis (Rvb= 51.29%); type: functional
MOLM-13 [17] = assay: Induction of apoptosis in human MOLM-13 cells assessed as late apoptotic cells at 1 uM incubated for 12 hrs by annexin-V and propidium iodide staining based flow cytometry analysis (reference value: 3.03%); type: functional
MOLM-13 [18] = assay: Induction of apoptosis in human MOLM-13 cells assessed as live cells at 1 uM incubated for 12 hrs by annexin-V and propidium iodide staining based flow cytometry analysis (reference value: 91.49%); type: functional
MOLM-13 [19] = assay: Induction of cell cycle arrest in human MOLM-13 cells assessed as G1 phase at 1 uM incubated for 12 hr by propidium iodide based flow cytometry analysis (Rvb= 51.29%); type: functional
K562 [20] = assay: Downregulation of mcl-1 levels in human K562 cells at 1 to 2 uM incubated for 24 hrs by western blot analysis; type: functional, cell-based; settings: dose 1-2 µM
MOLM-13 [21] = assay: Induction of apoptosis in human MOLM-13 cells assessed as late apoptotic cells at 2 uM incubated for 12 hrs by annexin-V and propidium iodide staining based flow cytometry analysis (reference value: 3.03%); type: functional
MOLM-13 [22] = assay: Induction of cell cycle arrest in human MOLM-13 cells assessed as sub-G1 phase at 2 uM incubated for 12 hr by propidium iodide based flow cytometry analysis (Rvb= 4.78%); type: functional
MOLM-13 [23] = assay: Downregulation of c-myc levels in human MOLM-13 cells at 1 to 2 uM incubated for 12 hrs by western blot analysis; type: functional, cell-based; settings: dose 1-2 µM
MOLM-13 [24] = assay: Downregulation of mcl-1 levels in human MOLM-13 cells at 1 to 2 uM incubated for 12 hrs by western blot analysis; type: functional, cell-based; settings: dose 1-2 µM
K562 [25] = assay: Antiproliferative activity against human K562 cells assessed as reduction of cell viability incubated for 72 hrs by trypan blue staining based cell counting analysis; type: functional
K562 [26] = assay: Downregulation of c-myc levels in human K562 cells at 1 to 2 uM incubated for 24 hrs by western blot analysis; type: functional, cell-based; settings: dose 1-2 µM
[27] = Intrinsic clearance in rat liver microsomes preincubated for 10 mins followed by NADPH addition and further incubated upto 60 mins by LC-MS/MS analysis; type: ADME, Microsome; settings: time <=70 min, read-out: CLH
[28] = Intrinsic clearance in human liver microsomes preincubated for 10 mins followed by NADPH addition and further incubated upto 60 mins by LC-MS/MS analysis; type: ADME, Microsome; settings: time <=70 min, read-out: CLH
[29] = Metabolic stability in rat liver microsomes assessed as half life preincubated for 10 mins followed by NADPH addition and further incubated upto 60 mins by LC-MS/MS analysis; type: ADME, Microsome; settings: time <=70 min

Chain of MAP kinase-interacting serine/threonine-protein kinase 2 (Q9HBH9 whole entry): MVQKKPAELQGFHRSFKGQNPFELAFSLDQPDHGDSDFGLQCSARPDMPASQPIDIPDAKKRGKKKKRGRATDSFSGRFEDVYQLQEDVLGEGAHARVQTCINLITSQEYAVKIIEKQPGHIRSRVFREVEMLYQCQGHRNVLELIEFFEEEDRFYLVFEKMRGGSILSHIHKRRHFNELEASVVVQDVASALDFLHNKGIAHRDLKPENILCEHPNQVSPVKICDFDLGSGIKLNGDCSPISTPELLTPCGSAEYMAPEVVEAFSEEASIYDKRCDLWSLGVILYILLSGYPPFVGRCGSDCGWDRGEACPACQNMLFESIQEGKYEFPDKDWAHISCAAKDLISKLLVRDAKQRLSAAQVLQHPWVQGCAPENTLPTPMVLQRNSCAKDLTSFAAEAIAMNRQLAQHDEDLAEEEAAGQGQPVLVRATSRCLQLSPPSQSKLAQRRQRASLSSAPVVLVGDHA
T2 sequence (P11309 whole entry, looked up): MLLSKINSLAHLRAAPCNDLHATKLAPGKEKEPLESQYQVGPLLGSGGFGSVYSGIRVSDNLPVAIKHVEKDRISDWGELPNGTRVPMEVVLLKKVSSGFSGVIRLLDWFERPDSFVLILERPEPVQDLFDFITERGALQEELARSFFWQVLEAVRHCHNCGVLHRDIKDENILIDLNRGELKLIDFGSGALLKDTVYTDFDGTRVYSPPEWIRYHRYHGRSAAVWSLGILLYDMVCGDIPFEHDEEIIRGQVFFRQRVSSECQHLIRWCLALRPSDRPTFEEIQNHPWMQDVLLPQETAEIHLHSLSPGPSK
T2 sequence (Q9P1W9 whole entry, looked up): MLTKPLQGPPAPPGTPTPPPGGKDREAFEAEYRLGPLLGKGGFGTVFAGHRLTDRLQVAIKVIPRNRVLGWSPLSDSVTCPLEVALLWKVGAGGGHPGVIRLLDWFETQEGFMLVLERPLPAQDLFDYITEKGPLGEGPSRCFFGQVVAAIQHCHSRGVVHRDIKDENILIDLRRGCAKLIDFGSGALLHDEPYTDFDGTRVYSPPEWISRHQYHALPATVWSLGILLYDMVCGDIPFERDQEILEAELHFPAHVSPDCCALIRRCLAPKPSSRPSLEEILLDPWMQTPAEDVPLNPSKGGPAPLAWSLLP

Cc1c(C(=O)N(C)C)oc2ccc(Nc3ncnc4ccc(Cl)nc34)cc12
IC50 [1]: 2.2 µM
IC50 [2]: > 10 µM

Cc1c(C(=O)N2CCNCC2)oc2ccc(Nc3ncnc4ccc(Cl)nc34)cc12
IC50 [1]: 1.9 µM
IC50 [2]: > 10 µM

CNC(=O)c1oc2ccc(Nc3ncnc4ccc(Cl)nc34)cc2c1C
IC50 [1]: 2.5 µM
IC50 [2]: > 10 µM

O=C(c1ccc(-c2ccc3ncnc(Nc4cccc(F)c4)c3n2)cc1)N1CCNCC1
IC50 [1]: 0.033 µM
inhibition [3]: 70%
GI50 (MOLM-13 [4]): 3.8 µM

CN(C)C(=O)c1cccc(C#Cc2ccccc2Nc2ncnc3ccc(Cl)nc23)c1
IC50 [1]: > 10 µM
IC50 [2]: > 10 µM

Cc1c(C(=O)N2CCOCC2)oc2ccc(Nc3ncnc4ccc(Cl)nc34)cc12
IC50 [1]: 1.8 µM
IC50 [2]: > 10 µM

CNC(=O)c1cccc(C#Cc2ccccc2Nc2ncnc3ccc(Cl)nc23)c1
IC50 [1]: 4.9 µM
IC50 [2]: > 10 µM

Cc1ccc(Nc2ncnc3ccc(-c4ccc(C(=O)N5CCNCC5)cc4)nc23)cc1
IC50 [1]: 0.062 µM
inhibition [3]: 12%
GI50 (MOLM-13 [4]): 3.54 µM

COC(=O)c1cccc(C#Cc2ccccc2Nc2ncnc3ccc(Cl)nc23)c1
IC50 [1]: 4.2 µM
IC50 [2]: > 10 µM

COC(=O)c1oc2ccc(Nc3ncnc4ccc(Cl)nc34)cc2c1C
IC50 [1]: 4.8 µM
IC50 [2]: > 10 µM

O=C(c1ccc(-c2ccc3ncnc(Nc4ccccc4)c3n2)cc1)N1CCNCC1
IC50 [1]: 0.036 µM
inhibition [3]: 71%
GI50 (MOLM-13 [4]): 3.19 µM

CN1CCC(CNc2ccc3ncc(-c4cccc(OC(F)(F)F)c4)n3n2)CC1 [SGI-1776]
Activity (K562 [5]): inactive
Activity (MOLM-13 [6]): 31.08%
inhibition [7]: Active
Activity (MOLM-13 [8]): 0.22%
Activity (MOLM-13 [9]): 0.13%
GI50 (HL-60): 1.28 µM
Activity (MOLM-13 [10]): Active
Activity (MOLM-13 [11]): 64.56%
Activity (MOLM-13 [12]): 15.68%
inhibition [13]: Active
inhibition [14]: inactive
Activity (MOLM-13 [15]): 24.57%
GI50 (MOLM-13 [4]): 0.13 µM
Activity (MOLM-13 [16]): 58.06%
Activity (MOLM-13 [17]): 4.05%
Activity (MOLM-13 [18]): 71.17%
Activity (MOLM-13 [19]): 67.94%
Activity (K562 [20]): inactive
Activity (MOLM-13 [21]): 4.23%
Activity (MOLM-13 [22]): 26.08%
Activity (MOLM-13 [23]): Active
Activity (MOLM-13 [24]): Active
GI50 (K562 [25]): 2.19 µM
Activity (K562 [26]): inactive

COc1cc(F)ccc1Nc1ncnc2ccc(-c3ccc(C(=O)N4CCNCC4)cc3)nc12
IC50 [1]: 0.029 µM
inhibition [3]: 89%
GI50 (MOLM-13 [4]): 1.88 µM
IC50 [2]: 0.0012 µM

COc1cc(Nc2ncnc3ccc(-c4ccc(C(=O)N5CCNCC5)cc4)nc23)ccc1F
IC50 [1]: 0.025 µM
inhibition [3]: 90%
GI50 (MOLM-13 [4]): 2.85 µM
IC50 [2]: 0.001 µM

CCCNC(=O)c1oc2ccc(Nc3ncnc4ccc(Cl)nc34)cc2c1C
IC50 [1]: 1.9 µM
IC50 [2]: > 10 µM

O=C(c1ccc(-c2ccc3ncnc(Nc4ccccc4F)c3n2)cc1)N1CCNCC1
IC50 [1]: 0.01 µM
inhibition [3]: 34%
GI50 (MOLM-13 [4]): 3.08 µM

N#Cc1ccc(Nc2ncnc3ccc(-c4ccc(C(=O)N5CCNCC5)cc4)nc23)cc1
IC50 [1]: 0.043 µM
inhibition [3]: 88%
IC50 [2]: 0.00015 µM

c1ccc(Nc2ncnc3ccc(-c4ccccc4)nc23)cc1
IC50 [1]: 0.612 µM
inhibition [3]: 0%

COc1ccc(Nc2ncnc3ccc(-c4ccc(C(=O)N5CCNCC5)cc4)nc23)cc1
IC50 [1]: 0.111 µM
inhibition [3]: 7%
GI50 (MOLM-13 [4]): 10.1 µM

O=C(c1ccc(-c2ccc3ncnc(Nc4ccc(C(F)(F)F)cc4)c3n2)cc1)N1CCNCC1
IC50 [1]: 0.041 µM
inhibition [3]: 0%
GI50 (MOLM-13 [4]): 2.67 µM

CCCNC(=O)c1cccc(C#Cc2ccccc2Nc2ncnc3ccc(Cl)nc23)c1
IC50 [1]: 3.9 µM
IC50 [2]: > 10 µM

Cc1ncc2n1-c1ccc(Cl)cc1C(c1ccccc1F)=NC2 [MIDAZOLAM]
CLint scaled [27]: 939 mL/min/kg
CLint scaled [28]: 219 mL/min/kg
half-life [29]: 2.64 min

CNC(=O)c1ccc(-c2ccc3ncnc(Nc4ccccc4)c3n2)cc1
IC50 [1]: 0.058 µM
inhibition [3]: 37%
GI50 (MOLM-13 [4]): 1.83 µM

O=C(c1ccc(-c2ccc3ncnc(Nc4ccc(O)cc4)c3n2)cc1)N1CCNCC1
IC50 [1]: 0.041 µM
inhibition [3]: 86%
GI50 (MOLM-13 [4]): 11.2 µM
IC50 [2]: 0.0085 µM

O=C(c1cccc(C#Cc2ccccc2Nc2ncnc3ccc(Cl)nc23)c1)N1CCNCC1
IC50 [1]: 5 µM
IC50 [2]: > 10 µM

O=C(c1cccc(-c2ccc3ncnc(Nc4ccccc4)c3n2)c1)N1CCNCC1
IC50 [1]: 0.624 µM
inhibition [3]: 57%
GI50 (MOLM-13 [4]): 3.92 µM

O=C(c1cccc(C#Cc2ccccc2Nc2ncnc3ccc(Cl)nc23)c1)N1CCOCC1
IC50 [1]: > 10 µM
IC50 [2]: > 10 µM

O=C(c1cccc(-c2ccc3ncnc(Nc4ccc(F)cc4)c3n2)c1)N1CCNCC1
IC50 [1]: 0.052 µM
inhibition [3]: 70%
GI50 (MOLM-13 [4]): 6.05 µM

O=C(c1ccc(-c2ccc3ncnc(Nc4ccc(F)cc4)c3n2)cc1)N1CCNCC1
IC50 [1]: 0.026 µM
inhibition [3]: 83%
GI50 (MOLM-13 [4]): 7.93 µM
IC50 [2]: 0.0011 µM
